What all share (format): cell-based
Assay [1] concerns Klebsiella pneumoniae XNWB 0006. The assay is described as follows: MIC assay of test compounds combined with imipenem (4 μg/mL). The settings on record: imipenem 4 μg/mL fixed. The procedure, abridged:
(§1)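 Strains were revived from −80 °C stocks on TSA, subcultured, and single colonies were resuspended in saline to OD600 0.1-0.15. After a 300-fold dilution in 1.1×CAMHB, cells were combined with diluted compound and a fixed antibiotic. Growth was assessed after 16-20 h at 35±2 °C.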

Assay [2] deals with Acinetobacter baumannii XNWB 0007. The assay is described as above. The settings on record: imipenem 4 μg/mL fixed. The method in brief: as §1
Assay [3] concerns Pseudomonas aeruginosa XNWB 0008. Described as above. The conditions noted are these: imipenem 4 μg/mL fixed. The procedure, abridged:
as §1

Assay [4] has as its system Klebsiella pneumoniae XNWB 0003. The description is as above. The conditions noted are these: imipenem 4 μg/mL fixed. The method in brief:
as §1

In assay [5] the test system is Klebsiella pneumoniae XNWB 0002. The assay is described as above. The conditions noted are these: imipenem 4 μg/mL fixed. The method in brief: as §1
For assay [6], the system named is Klebsiella pneumoniae XNWB 0005. The assay is described as above. The settings on record: imipenem 4 μg/mL fixed. The method in brief: as §1
In assay [7] the test system is Klebsiella pneumoniae XNWB 0001. The assay is described as above. The conditions noted are these: imipenem 4 μg/mL fixed. The procedure, abridged: as §1
Assay [8] concerns Klebsiella pneumoniae XNWB 0004. Described as above. The settings on record: imipenem 4 μg/mL fixed. The method in brief:
as §1

For assay [9], the system named is Escherichia coli XNWB 0010. Kind of assay: MIC assay of test compounds combined with ampicillin (8 μg/mL). The settings on record: ampicillin 8 μg/mL fixed. The protocol:
(§2) The bacterial strains used for the minimum inhibitory concentration (MIC) test were frozen in a −80° C. ULT freezer and thawed 2 days before use. A small amount of frozen bacterial strains were scraped using a sterile inoculating loop, streaked onto a TSA solid culture dish for inoculation, and then cultured for 20-24 h at 35±2° C. in a normal atmospheric environment.
(§3) 5-10 colonies with similar morphology were picked from the culture dish using a sterile inoculating loop and then re-streaked onto a suitable solid culture dish. Then the dish was placed into a normal incubator for culture for 20-24 h at 35±2° C.
(§4) 5-10 single bacterial colonies were picked from the solid culture dish, resuspended in 500 μL of 0.9% NaCl, and adjusted to an OD600 of 0.1-0.15 with a spectrophotometer.
(§5) The bacteria were then diluted 300-fold with 1.1×CAMHB.
(§6) Test compounds of columns A-H: having a highest final test concentration of 64 μg/mL or 32 μg/mL, 2-fold diluted.
(§7) Dilution of test compounds: All test compounds were dissolved and diluted in dimethylsulfoxide (DMSO). 170 μL of 3.2 mg/mL (50*64 μg/mL) compound was transferred to wells (A1-H1) of column 1 of a dilution master plate and then 85 μL of DMSO was transferred to wells of other columns. Each compound was diluted 2-fold in sequence (i.e., 85 μL of compound was pipetted from column 1 into column 2 and mixed uniformly, 85 μL of compound was pipetted from column 2 into column 3 and mixed uniformly, then 85 μL of compound was pipetted from column 3 into column 4 and mixed uniformly, and so on until the dilution was done in column 11).
(§8) Preparation of an additive of ampicillin: Ampicillin was dissolved in ddH2O. 30 μL of 100 μg/mL (12.5×8 μg/mL) ampicillin was transferred to columns 1-11 of an additive plate, followed by the addition of 30 μL of ddH2O to column 12.
(§9) 2 μL of each compound in the dilution master plate of the test compounds was transferred to the corresponding well of the assay plates. In the mean time, 2 μL of 100% DMSO was transferred to the compound-free wells (GC and SC wells). (1) 8 μL of imipenem in the additive plate of imipenem was transferred to the corresponding wells of the assay plates; (2) 8 μL of ceftazidime in the additive plate of ceftazidime was transferred to the corresponding wells of the assay plates; (3) 8 μL of ampicillin in the additive plate of ampicillin was transferred to the corresponding wells of the assay plates.
(§10) 90 μL of corresponding bacterial inocula were added to wells (except for SC wells) of the assay plates.
(§11) After addition, the 6 assay plates were covered by sterile covers. The mixtures in the assay plates were centrifuged by a centrifuge at 1000 rpm for 30 s, and mixed uniformly by oscillating with a microplate oscillator at 800 rpm for 1 min, and then cultured in a common incubator for 16-20 h at 35±2° C.
(§12) The minimum inhibitory concentration of each compound was recorded by reference to guidelines from the Clinical and Laboratory Standards Institute.
(§13) The minimum inhibitory concentrations of the compounds of the present invention and antibiotics (imipenem, ceftazidime, and ampicillin) against 11 strains of bacteria were tested in this study by reference to the medium microdilution method as indicated by the Clinical and Laboratory Standards Institute. The effect of the test compounds in combination with imipenem, ceftazidime, and ampicillin was also tested. Compounds were diluted two-fold in 96-well plates from the highest detection concentration of 64 μg/mL. The test compounds were tested in combination with a fixed concentration of imipenem (4 μg/mL), ceftazidime (8 μg/mL), and ampicillin (8 μg/mL). The bacterial inocula in the assay plates were resuscitated from TSA and diluted in CAMHB, while growth controls (GC wells) and sterile controls (SC wells) were set up in the assay plates. […]

Assay [10] deals with Escherichia coli XNWB 0009. Described as above. The settings on record: ampicillin 8 μg/mL fixed. On the procedure:
as §2, §3, §4, §5, §6, §7, §8, §9, §10, §11, §12, §13

Assay [11] deals with Enterobacter aerogenes XNWB 0011. The assay is described as above. The settings on record: ampicillin 8 μg/mL fixed. On the procedure: as §2, §3, §4, §5, §6, §7, §8, §9, §10, §11, §12, §13
Assay [12] has as its system Klebsiella pneumoniae XNWB 0006. The assay is described as follows: MIC assay of test compounds combined with ceftazidime (8 μg/mL). The settings on record: ceftazidime 8 μg/mL fixed. The procedure, abridged:
as §1

Assay [13] deals with Acinetobacter baumannii XNWB 0007. The description is as above. The settings on record: ceftazidime 8 μg/mL fixed. The method in brief:
as §1

Assay [14] deals with Pseudomonas aeruginosa XNWB 0008. The description is as above. The settings on record: ceftazidime 8 μg/mL fixed. The method in brief:
as §1

The test system of assay [15] is Klebsiella pneumoniae XNWB 0003. The assay is described as above. The settings on record: ceftazidime 8 μg/mL fixed. The method in brief: as §1
Assay [16] deals with Klebsiella pneumoniae XNWB 0002. The description is as above. The conditions noted are these: ceftazidime 8 μg/mL fixed. The method in brief: as §1
The test system of assay [17] is Klebsiella pneumoniae XNWB 0005. Described as above. The settings on record: ceftazidime 8 μg/mL fixed. The procedure, abridged:
as §1

Assay [18] relates to Klebsiella pneumoniae XNWB 0001. The description is as above. The conditions noted are these: ceftazidime 8 μg/mL fixed. The procedure, abridged:
as §1

In assay [19] the test system is Klebsiella pneumoniae XNWB 0004. The assay is described as above. The settings on record: ceftazidime 8 μg/mL fixed. The method in brief: as §1

Each structure is given as a SMILES string. Where a name gives a salt, the structure may show the parent alone.

As to `O=C1N2C[C@H](N1OS(=O)(=O)O)C1(CC1)C[C@H]2c1cc(C2CCNCC2)on1` [Example 43, (1R,4S)-6-oxo-4-(5-(piperidin-4-yl)isoxazol-3-yl)-5,7-diazaspiro[bicyclo[3.2.1]octane-2,1′-cyclopropan]-7-yl sulfate], the “The minimum concentration of test compounds combined with imipenem (4 μg/mL) for bacteriostasis” value in assay [1] is “A (A: <8 μg/mL)”; in [2], “C (C: 16-128 μg/mL)”; in [3] it was “A (A: <8 μg/mL)”; in assay [4], “A (A: <8 μg/mL)”; in assay [5], “A (A: <8 μg/mL)”; in [6], “A (A: <8 μg/mL)”. The “The minimum concentration of test compounds combined with imipenem (4 μg/mL) for bacteriostasis” value in assay [7] and in assay [8] was “A (A: <8 μg/mL)” each time. Moreover, the “The minimum concentration of test compounds combined with ampicillin (8 μg/mL) for bacteriostasis” value in assay [9] is given as “A (A: <8 μg/mL)”; in [10] it was “A (A: <8 μg/mL)”; in [11], “B (B: 8-16 μg/mL)”. For the same molecule, the “The minimum concentration of test compounds combined with ceftazidime (8 μg/mL) for bacteriostasis” value in [12] was “A (A: <8 μg/mL)”; in assay [13], “C (C: 16-128 μg/mL)”; in [14], “B (B: 8-16 μg/mL)”; in [15] it was “B (B: 8-16 μg/mL)”; in assay [16] it was “A (A: <8 μg/mL)”; in assay [17], “A (A: <8 μg/mL)”. Also, the “The minimum concentration of test compounds combined with ceftazidime (8 μg/mL) for bacteriostasis” value in assay [18] is “A (A: <8 μg/mL)”; in [19], “B (B: 8-16 μg/mL)”.

In the case of `NCCc1nnc([C@@H]2CC3(CC3)[C@@H]3CN2C(=O)N3OS(=O)(=O)O)o1` [Example 4, (1R,4S)-4-(5-(2-aminoethyl)-1,3,4-oxadiazol-2-yl)-6-oxo-5,7-diazaspiro[bicycle[3.2.1]octane-2,1′-cyclopropan]-7-yl sulfate], the “The minimum concentration of test compounds combined with imipenem (4 μg/mL) for bacteriostasis” value is “A (A: <8 μg/mL)” in assay [1]; “B (B: 8-16 μg/mL)” in assay [2]; “A (A: <8 μg/mL)” in assay [3]; “A (A: <8 μg/mL)” in assay [4]; “A (A: <8 μg/mL)” in assay [5]; “A (A: <8 μg/mL)” in assay [6]. Moreover, the “The minimum concentration of test compounds combined with imipenem (4 μg/mL) for bacteriostasis” value in assay [7] and in [8] was “A (A: <8 μg/mL)” each time. Moreover, the figures for the “The minimum concentration of test compounds combined with ampicillin (8 μg/mL) for bacteriostasis” value in [9], in assay [10] and in assay [11] were “A (A: <8 μg/mL)”, “A (A: <8 μg/mL)” and “B (B: 8-16 μg/mL)”, respectively. The “The minimum concentration of test compounds combined with ceftazidime (8 μg/mL) for bacteriostasis” value in [12] is listed as “A (A: <8 μg/mL)”; in assay [13], “C (C: 16-128 μg/mL)”; in [14], “C (C: 16-128 μg/mL)”; in assay [15], “A (A: <8 μg/mL)”; in assay [16], “A (A: <8 μg/mL)”; in [17], “A (A: <8 μg/mL)”. The “The minimum concentration of test compounds combined with ceftazidime (8 μg/mL) for bacteriostasis” value in [18] and in assay [19] was “A (A: <8 μg/mL)” in each case.

Consider `O=C1N2C[C@H](N1OS(=O)(=O)O)C1(CC1)C[C@H]2c1nnc(CNC2CNC2)o1` [Example 14, (1R,4S)-4-(5-((azetidin-3-ylamino)methyl)-1,3,4-oxadiazol-2-yl)-6-oxo-5,7-diazaspiro [bicyclo[3.2.1]octane-2,1′-cyclopropan]-7-yl sulfate], for which the “The minimum concentration of test compounds combined with imipenem (4 μg/mL) for bacteriostasis” value in assay [1] is listed as “A (A: <8 μg/mL)”; in assay [2], “C (C: 16-128 μg/mL)”; in assay [3] it was “B (B: 8-16 μg/mL)”; in [4] it was “A (A: <8 μg/mL)”; in assay [5], “A (A: <8 μg/mL)”; in assay [6], “A (A: <8 μg/mL)”. For the same molecule, the “The minimum concentration of test compounds combined with imipenem (4 μg/mL) for bacteriostasis” value in assay [7] and in [8] was “A (A: <8 μg/mL)” each time. In addition, the “The minimum concentration of test compounds combined with ampicillin (8 μg/mL) for bacteriostasis” value in assay [9] was 4 µg/mL; in [10] it was “A (A: <8 μg/mL)”; in assay [11] it was “B (B: 8-16 μg/mL)”. The “The minimum concentration of test compounds combined with ceftazidime (8 μg/mL) for bacteriostasis” value in assay [12] is given as “A (A: <8 μg/mL)”; in [13] it was “C (C: 16-128 μg/mL)”; in assay [14], “C (C: 16-128 μg/mL)”; in [15], “B (B: 8-16 μg/mL)”; in assay [16], “A (A: <8 μg/mL)”; in [17], “B (B: 8-16 μg/mL)”. In addition, the “The minimum concentration of test compounds combined with ceftazidime (8 μg/mL) for bacteriostasis” value in assay [18] is recorded as “A (A: <8 μg/mL)”; in assay [19] it was “B (B: 8-16 μg/mL)”.

Values taken from US11078202B2, “β-lactamase inhibitor and use thereof” (priority 2018, dated 2021).
